The values that follow come from patent US8394792B2, “Heterocyclic derivatives” (C&C Research Laboratories, priority 2008, dated 2013).

By IC50 is commonly meant the concentration that gives 50% inhibition.

This data set addresses CYP2C9 (Homo sapiens, UniProt P11712).

Chain of CYP2C9 (P11712 whole entry): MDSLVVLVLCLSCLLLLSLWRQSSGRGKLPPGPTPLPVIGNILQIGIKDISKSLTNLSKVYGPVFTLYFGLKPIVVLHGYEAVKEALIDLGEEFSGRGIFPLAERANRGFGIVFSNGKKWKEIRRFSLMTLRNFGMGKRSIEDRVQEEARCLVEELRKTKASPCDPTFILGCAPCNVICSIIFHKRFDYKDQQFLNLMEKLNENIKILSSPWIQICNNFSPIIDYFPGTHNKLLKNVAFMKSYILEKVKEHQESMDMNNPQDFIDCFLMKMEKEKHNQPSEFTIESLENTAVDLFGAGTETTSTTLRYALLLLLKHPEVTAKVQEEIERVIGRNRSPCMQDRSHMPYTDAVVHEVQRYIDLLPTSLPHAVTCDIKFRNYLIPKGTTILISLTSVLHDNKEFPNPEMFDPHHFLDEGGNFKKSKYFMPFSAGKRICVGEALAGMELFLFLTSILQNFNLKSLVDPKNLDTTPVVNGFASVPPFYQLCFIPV

For the compound `O=C(CN1C(=O)COc2ccncc21)c1cc(Br)c(O)c(Br)c1` [Compound 56], the IC50 is > 20 µM.
